In US20080234331A1, “Synergistic Insecticidal Mixtures for the Treatment of Seed” (Bayer CropScience AG, priority 2005, published 2008):

Tested on: Onions cv. Vaquero
Assay: Onion yield after seed treatment with insecticidal active substances
Type: in vivo
Conditions: for Yield in % relative to the insecticide-untreated control 1: onion seed cv. Vaquero pretreated with thiram 2 g ai/kg and carbendazim 1 g ai/kg, seed treatment, total application rate 0.18 mg ai/seed (mixture 0.09 + 0.09); for growth-promoting effect with regard to the yield (in words): onion seed treatment, same total application rate
Description: Onions cv. Vaquero from the Dutch company Nunhems were pretreated uniformly with the fungicidal active substances thiram (2 g ai/kg) and carbendazim (1 g ai/kg) by customary methods. Thereafter, the seed was treated as follows, using insecticidal active substances: • 1. control, no insecticides • 2. Poncho WS 70 (clothianidin) at 0.18 mg ai/seed • 3. Gaucho WS 70 (imidacloprid) at 0.18 mg ai/seed • 4. clothianidin+imidacloprid at 0.09+0.09 mg ai/seed

| Compound | Yield in % relative to the insecticide-untreated control 1 [%] | growth-promoting effect with regard to the yield (in words) |
| --- | --- | --- |
| CN/C(=N\[N+](=O)[O-])NCc1cnc(Cl)s1 [clothianidin] | 137 | growth-promoting effect |
| O=[N+]([O-])/N=C1\NCCN1Cc1ccc(Cl)nc1 [imidacloprid] | 109 | growth-promoting effect |
